Experimental data as given in ChEMBL document CHEMBL2040759, “Design, synthesis and anticancer activity of nitric oxide donating/chalcone hybrids” (2012).

Experiments:
Type in all cases: functional
EKVX = experiment: Growth inhibition of human EKVX cells assessed as cell growth at 10^-5 M after 48 hrs by SRB assay; details: read-out: Activity
UACC-257 = experiment: Growth inhibition of human UACC257 cells after 48 hrs by SRB assay; details: UACC-257, 48 h
UO-31 = experiment: Growth inhibition of human UO31 cells assessed as cell growth at 10^-5 M after 48 hrs by SRB assay; details: UO-31, 48 h, read-out: Activity
A549 = experiment: Growth inhibition of human A549/ATCC cells assessed as cell growth at 10^-5 M after 48 hrs by SRB assay; details: A549, 48 h, read-out: Activity
NCI-H522 = experiment: Growth inhibition of human NCI-H522 cells after 48 hrs by SRB assay; details: NCI-H522, 48 h
SNB-75 = experiment: Growth inhibition of human SNB75 cells after 48 hrs by SRB assay; details: SNB-75, 48 h
K562 = experiment: Growth inhibition of human K562 cells after 48 hrs by SRB assay; details: K562, 48 h
HOP-92 = experiment: Growth inhibition of human HOP92 cells after 48 hrs by SRB assay; details: HOP-92, 48 h
MCF7 [1] = experiment: Growth inhibition of human MCF7 cells assessed as cell growth at 10^-5 M after 48 hrs by SRB assay; details: MCF7, 48 h, read-out: Activity
OVCAR-5 [2] = experiment: Growth inhibition of human OVCAR5 cells assessed as cell growth at 10^-5 M after 48 hrs by SRB assay; details: OVCAR-5, 48 h, read-out: Activity
786-0 [3] = experiment: Growth inhibition of human 786-0 cells assessed as cell growth at 10^-5 M after 48 hrs by SRB assay; details: 786-0, 48 h, read-out: Activity
TK-10 = experiment: Growth inhibition of human TK10 cells assessed as cell growth at 10^-5 M after 48 hrs by SRB assay; details: TK-10, 48 h, read-out: Activity
OVCAR-4 = experiment: Growth inhibition of human OVCAR4 cells after 48 hrs by SRB assay; details: OVCAR-4, 48 h
NCI-H322M = experiment: Growth inhibition of human NCI-H322M cells after 48 hrs by SRB assay
MDA-MB-435 [4] = experiment: Growth inhibition of human MDA-MB-435 cells after 48 hrs by SRB assay; details: MDA-MB-435, 48 h
786-0 [5] = experiment: Growth inhibition of human 786-0 cells after 48 hrs by SRB assay; details: 786-0, 48 h
T47D = experiment: Growth inhibition of human T47D cells assessed as cell growth at 10^-5 M after 48 hrs by SRB assay; details: read-out: Activity
SN12C = experiment: Growth inhibition of human SN12C cells assessed as cell growth at 10^-5 M after 48 hrs by SRB assay; details: read-out: Activity
NCI-H460 [6] = experiment: Growth inhibition of human NCI-H460 cells assessed as cell growth at 10^-5 M after 48 hrs by SRB assay; details: NCI-H460, 48 h, read-out: Activity
OVCAR-3 = experiment: Growth inhibition of human OVCAR3 cells assessed as cell growth at 10^-5 M after 48 hrs by SRB assay; details: OVCAR-3, 48 h, read-out: Activity
Malme-3M = experiment: Growth inhibition of human MALME-3M cells assessed as cell growth at 10^-5 M after 48 hrs by SRB assay; details: read-out: Activity
[7] = Growth inhibition of human […] cells assessed as cell growth at 10^-5 M after 48 hrs by SRB assay; details: RPMI18226, 48 h, read-out: Activity
SF-268 = experiment: Growth inhibition of human SF268 cells after 48 hrs by SRB assay; details: SF-268, 48 h
OVCAR-5 [8] = experiment: Growth inhibition of human OVCAR5 cells after 48 hrs by SRB assay; details: OVCAR-5, 48 h
MCF7 [9] = experiment: Growth inhibition of human MCF7 cells after 48 hrs by SRB assay; details: MCF7, 48 h
SNB-19 = experiment: Growth inhibition of human SNB19 cells assessed as cell growth at 10^-5 M after 48 hrs by SRB assay; details: SNB-19, 48 h, read-out: Activity
NCI-H460 [10] = experiment: Growth inhibition of human NCI-H460 cells after 48 hrs by SRB assay; details: NCI-H460, 48 h
[11] = Growth inhibition of human NCI-ADR-RES cells assessed as cell growth at 10^-5 M after 48 hrs by SRB assay; details: read-out: Activity
COLO 205 = experiment: Growth inhibition of human COLO205 cells after 48 hrs by SRB assay; details: COLO 205, 48 h
MDA-MB-435 [12] = experiment: Growth inhibition of human MDA-MB-435 cells assessed as cell growth at 10^-5 M after 48 hrs by SRB assay; details: MDA-MB-435, 48 h, read-out: Activity
HOP-62 = experiment: Growth inhibition of human HOP62 cells assessed as cell growth at 10^-5 M after 48 hrs by SRB assay; details: HOP-62, 48 h, read-out: Activity
[13] = Growth inhibition of human NCI-ADR-RES cells after 48 hrs by SRB assay
HT-29 = experiment: Growth inhibition of human HT-29 cells assessed as cell growth at 10^-5 M after 48 hrs by SRB assay; details: HT-29, 48 h, read-out: Activity
HCT-116 = experiment: Growth inhibition of human HCT116 cells assessed as cell growth at 10^-5 M after 48 hrs by SRB assay; details: HCT-116, 48 h, read-out: Activity
HL-60(TB) = experiment: Growth inhibition of human HL-60(TB) cells assessed as cell growth at 10^-5 M after 48 hrs by SRB assay; details: HL-60, 48 h, read-out: Activity
[14] = read-out: LC50 (the source's name)

Which growth at 10 µM (EKVX) does the source give for O=C(CO[N+](=O)[O-])Nc1ccc(C(=O)/C=C/c2ccc(Cl)cc2)cc1 here?
Its growth at 10 µM is 67.9%.

And the GI50 (UACC-257)?
The GI50 was 4.33 µM.

And the TGI (UACC-257)?
The TGI was 15.9 µM.

What about the CC50 (UACC-257; [14]) of the same compound?
The CC50 was 40.7 µM.

What about the growth at 10 µM (UO-31) of the same compound?
The growth at 10 µM was 31.9%.

And the growth at 10 µM (A549)?
The growth at 10 µM was 67.6%.

What about the GI50 (NCI-H522) of the same compound?
The GI50 was 2.31 µM.

What about the TGI (NCI-H522) of the same compound?
The TGI was 8.37 µM.

What about the CC50 (NCI-H522; [14]) of the same compound?
The CC50 was 32.8 µM.

And the GI50 (SNB-75)?
Its GI50 is 3.19 µM.

What about the TGI (SNB-75) of the same compound?
Its TGI is 17.6 µM.

And the CC50 (SNB-75; [14])?
Its CC50 is 47.6 µM.

And the GI50 (K562)?
The GI50 was 2.6 µM.

What about the TGI (K562) of the same compound?
The TGI was over 100 µM.

And the CC50 (K562; [14])?
The CC50 was over 100 µM.

And the GI50 (HOP-92)?
The GI50 was 2.95 µM.

And the TGI (HOP-92)?
The TGI was 15.2 µM.

What about the CC50 (HOP-92; [14]) of the same compound?
Its CC50 is 53.2 µM.

And the growth at 10 µM (MCF7 [1])?
The growth at 10 µM was 1.64%.

What about the growth at 10 µM (OVCAR-5 [2]) of the same compound?
Its growth at 10 µM is 67%.

And the growth at 10 µM (786-0 [3])?
Its growth at 10 µM is 75%.

What about the growth at 10 µM (TK-10) of the same compound?
The growth at 10 µM was 45.7%.

And the GI50 (OVCAR-4)?
Its GI50 is 4.06 µM.

And the TGI (OVCAR-4)?
Its TGI is 21 µM.

And the CC50 (OVCAR-4; [14])?
The CC50 was 76.5 µM.

And the GI50 (NCI-H322M)?
Its GI50 is 10.3 µM.

What about the TGI (NCI-H322M) of the same compound?
The TGI was 22.6 µM.

And the CC50 (NCI-H322M; [14])?
Its CC50 is 49.6 µM.

And the GI50 (MDA-MB-435 [4])?
The GI50 was 2.96 µM.

What about the TGI (MDA-MB-435 [4]) of the same compound?
Its TGI is 11.2 µM.

What about the CC50 (MDA-MB-435 [4]; [14]) of the same compound?
The CC50 was 59 µM.

What about the GI50 (786-0 [5]) of the same compound?
Its GI50 is 11.6 µM.

What about the TGI (786-0 [5]) of the same compound?
Its TGI is 48 µM.

What about the CC50 (786-0 [5]; [14]) of the same compound?
Its CC50 is over 100 µM.

What about the growth at 10 µM (T47D) of the same compound?
The growth at 10 µM was 55.5%.

What about the growth at 10 µM (SN12C) of the same compound?
The growth at 10 µM was 46.8%.

What about the growth at 10 µM (NCI-H460 [6]) of the same compound?
The growth at 10 µM was 84.9%.

What about the growth at 10 µM (OVCAR-3) of the same compound?
The growth at 10 µM was 0.33%.

And the growth at 10 µM (Malme-3M)?
Its growth at 10 µM is 79.1%.

And the growth at 10 µM [7]?
The growth at 10 µM was -14.2%.

What about the GI50 (SF-268) of the same compound?
The GI50 was 2.62 µM.

And the TGI (SF-268)?
The TGI was 11.7 µM.

And the CC50 (SF-268; [14])?
Its CC50 is 38 µM.

And the GI50 (OVCAR-5 [8])?
Its GI50 is 14.8 µM.

And the TGI (OVCAR-5 [8])?
Its TGI is 36 µM.

What about the CC50 (OVCAR-5 [8]; [14]) of the same compound?
Its CC50 is 87.8 µM.

And the GI50 (MCF7 [9])?
The GI50 was 0.67 µM.

What about the TGI (MCF7 [9]) of the same compound?
The TGI was 6.44 µM.

What about the CC50 (MCF7 [9]; [14]) of the same compound?
The CC50 was over 100 µM.

And the growth at 10 µM (SNB-19)?
Its growth at 10 µM is 87.8%.

What about the GI50 (NCI-H460 [10]) of the same compound?
The GI50 was 12.7 µM.

And the TGI (NCI-H460 [10])?
The TGI was 54.9 µM.

And the CC50 (NCI-H460 [10]; [14])?
The CC50 was over 100 µM.

What about the growth at 10 µM [11] of the same compound?
Its growth at 10 µM is 29.9%.

What about the GI50 (COLO 205) of the same compound?
The GI50 was 2.57 µM.

And the TGI (COLO 205)?
The TGI was 6.09 µM.

What about the CC50 (COLO 205; [14]) of the same compound?
The CC50 was 21.1 µM.

What about the growth at 10 µM (MDA-MB-435 [12]) of the same compound?
Its growth at 10 µM is -2.76%.

What about the growth at 10 µM (HOP-62) of the same compound?
Its growth at 10 µM is 94.1%.

What about the GI50 [13] of the same compound?
Its GI50 is 3.87 µM.

What about the TGI [13] of the same compound?
Its TGI is over 100 µM.

What about the CC50 [13, 14] of the same compound?
Its CC50 is over 100 µM.

What about the growth at 10 µM (HT-29) of the same compound?
The growth at 10 µM was -23.4%.

What about the growth at 10 µM (HCT-116) of the same compound?
The growth at 10 µM was -49.2%.

With O=C(CO[N+](=O)[O-])Nc1ccc(C(=O)/C=C/c2ccc3c(c2)OCO3)cc1 as the compound, how does the growth at 10 µM (EKVX) read?
Its growth at 10 µM is 99.7%.

What about the growth at 10 µM (UO-31) of the same compound?
Its growth at 10 µM is 77.1%.

And the growth at 10 µM (A549)?
The growth at 10 µM was 88.9%.

What about the growth at 10 µM (MCF7 [1]) of the same compound?
Its growth at 10 µM is 26.2%.

What about the growth at 10 µM (OVCAR-5 [2]) of the same compound?
Its growth at 10 µM is 96.5%.

And the growth at 10 µM (786-0 [3])?
Its growth at 10 µM is 109%.

What about the growth at 10 µM (TK-10) of the same compound?
The growth at 10 µM was 111%.

What about the growth at 10 µM (T47D) of the same compound?
The growth at 10 µM was 83%.

And the growth at 10 µM (SN12C)?
The growth at 10 µM was 95.4%.

What about the growth at 10 µM (NCI-H460 [6]) of the same compound?
Its growth at 10 µM is 108%.

What about the growth at 10 µM (OVCAR-3) of the same compound?
Its growth at 10 µM is 80.6%.

And the growth at 10 µM (Malme-3M)?
Its growth at 10 µM is 116%.

What about the growth at 10 µM [7] of the same compound?
Its growth at 10 µM is 46.8%.

And the growth at 10 µM (HL-60(TB))?
Its growth at 10 µM is 73.7%.

What about the growth at 10 µM (SNB-19) of the same compound?
Its growth at 10 µM is 104%.

What about the growth at 10 µM [11] of the same compound?
Its growth at 10 µM is 84.5%.

And the growth at 10 µM (MDA-MB-435 [12])?
The growth at 10 µM was 62.6%.

What about the growth at 10 µM (HOP-62) of the same compound?
Its growth at 10 µM is 112%.

What about the growth at 10 µM (HT-29) of the same compound?
Its growth at 10 µM is 30.1%.

And the growth at 10 µM (HCT-116)?
The growth at 10 µM was -5.9%.
